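Cultured in 96-well plates, cells were exposed to test compound for 48 hours across five concentrations. At the GI50, growth is halved.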 Activity calls are given as the source filed them. No stated cut-off is given here; in the data, active = GI50 up to about 1.1 µM and inactive = higher.
Legend:
Test in all cases: NCI anticancer screen, dose series, 48 h
Malme-3M = system: Malme-3M
COLO 205 = system: COLO 205
HT-29 = system: HT-29
SF-268 = system: SF-268
OVCAR-3 = system: OVCAR-3
UACC-62 = system: UACC-62
HOP-92 = system: HOP-92
IGROV-1 = system: IGROV-1
UACC-257 = system: UACC-257
SK-MEL-28 = system: SK-MEL-28
LOX IMVI = system: LOX IMVI
SNB-19 = system: SNB-19
SK-OV-3 = system: SK-OV-3
M14 = system: M14
SW-620 = system: SW-620
OVCAR-4 = system: OVCAR-4
HOP-18 = system: HOP-18
HCT-116 = system: HCT-116
K562 = system: K562
DMS-273 = system: DMS-273
SN12C = system: SN12C
RXF 393 = system: RXF 393
NCI-H460 = system: NCI-H460
SR = system: SR
786-0 = system: 786-0
XF498 = system: XF498
OVCAR-8 = system: OVCAR-8
M19-MEL = system: M19-MEL
LXFL 529 = system: LXFL 529
OVCAR-5 = system: OVCAR-5
DLD-1 = system: DLD-1
RPMI-8226 = system: RPMI-8226
ACHN = system: ACHN
U-251 = system: U-251
SK-MEL-5 = system: SK-MEL-5
KM-20L2 = system: KM-20L2
SK-MEL-2 = system: SK-MEL-2
UO-31 = system: UO-31
HL-60 = system: HL-60
RXF 631 = system: RXF 631
KM12 = system: KM12
A549 = system: A549
A498 = system: A498
CAKI-1 = system: CAKI-1
HCT-15 = system: HCT-15
SF-295 = system: SF-295
SNB-75 = system: SNB-75
TK-10 = system: TK-10
EKVX = system: EKVX
DMS-114 = system: DMS-114
SNB-78 = system: SNB-78
HOP-62 = system: HOP-62
NCI-H522 = system: NCI-H522
NCI-H226 = system: NCI-H226
NCI-H23 = system: NCI-H23
HCC 2998 = system: HCC 2998
CCRF-CEM = system: CCRF-CEM
SF-539 = system: SF-539
MOLT-4 = system: MOLT-4

`CC(=O)Nc1ccc(C2C(C(=O)Nc3ccccc3C)=C(C)NC(C)=C2C(=O)Nc2ccccc2C)cc1` was tested, and the GI50 (Malme-3M) was > 100 µM (inactive), the GI50 (COLO 205) was > 100 µM (inactive) and the GI50 (HT-29) was > 100 µM (inactive). For the same molecule, the GI50 (SF-268) was > 100 µM (inactive), the GI50 (OVCAR-3) was > 100 µM (inactive) and the GI50 (UACC-62) was > 92.3 µM (inactive). The GI50 (HOP-92) was > 100 µM (inactive), the GI50 (IGROV-1) was > 100 µM (inactive) and the GI50 (UACC-257) was 96.6 µM (inactive). The GI50 (SK-MEL-28) was > 100 µM (inactive), the GI50 (LOX IMVI) was > 100 µM (inactive) and the GI50 (SNB-19) was > 100 µM (inactive). The GI50 (SK-OV-3) was > 100 µM (inactive), the GI50 (M14) was > 100 µM (inactive) and the GI50 (SW-620) was > 100 µM (inactive). For the same molecule, the GI50 (OVCAR-4) was > 100 µM (inactive), the GI50 (HOP-18) was > 100 µM (inactive) and the GI50 (HCT-116) was > 100 µM (inactive). The GI50 (K562) was 57.5 µM (inactive), the GI50 (DMS-273) was > 100 µM (inactive) and the GI50 (SN12C) was > 100 µM (inactive). The GI50 (RXF 393) was > 100 µM (inactive), the GI50 (NCI-H460) was > 100 µM (inactive) and the GI50 (SR) was 20.1 µM (inactive). The GI50 (786-0) was > 100 µM (inactive), the GI50 (XF498) was > 100 µM (inactive) and the GI50 (OVCAR-8) was > 92 µM (inactive). For the same molecule, the GI50 (M19-MEL) was > 100 µM (inactive), the GI50 (LXFL 529) was > 100 µM (inactive) and the GI50 (OVCAR-5) was > 100 µM (inactive). For the same molecule, the GI50 (DLD-1) was > 100 µM (inactive), the GI50 (RPMI-8226) was > 100 µM (inactive) and the GI50 (ACHN) was > 100 µM (inactive). The GI50 (U-251) was > 100 µM (inactive), the GI50 (SK-MEL-5) was > 100 µM (inactive) and the GI50 (KM-20L2) was > 100 µM (inactive). For the same molecule, the GI50 (SK-MEL-2) was > 100 µM (inactive), the GI50 (UO-31) was > 100 µM (inactive) and the GI50 (HL-60) was 39.5 µM (inactive). For the same molecule, the GI50 (RXF 631) was > 100 µM (inactive), the GI50 (KM12) was > 31.6 µM (inactive) and the GI50 (A549) was > 100 µM (inactive). The GI50 (A498) was > 100 µM (inactive), the GI50 (CAKI-1) was > 100 µM (inactive) and the GI50 (HCT-15) was over 100 µM. For the same molecule, the GI50 (SF-295) was > 100 µM (inactive), the GI50 (SNB-75) was > 61.2 µM (inactive) and the GI50 (TK-10) was > 100 µM (inactive). The GI50 (EKVX) was > 100 µM (inactive), the GI50 (DMS-114) was > 100 µM (inactive) and the GI50 (SNB-78) was > 100 µM (inactive). For the same molecule, the GI50 (HOP-62) was > 100 µM (inactive), the GI50 (NCI-H522) was > 100 µM (inactive) and the GI50 (NCI-H226) was > 100 µM (inactive). The GI50 (NCI-H23) was > 100 µM (inactive), the GI50 (HCC 2998) was > 100 µM (inactive) and the GI50 (CCRF-CEM) was > 100 µM (inactive). The GI50 (SF-539) was > 100 µM (inactive).
For `CCOC(=O)CCC(NC(=O)c1ccc(NCc2ccc3nc(-c4ccccc4)c(Cl)nc3c2)cc1)C(=O)OCC` (stereo not drawn), the GI50 (Malme-3M) was 13 µM (inactive), the GI50 (COLO 205) was 20.5 µM (inactive) and the GI50 (HT-29) was > 100 µM (inactive). The GI50 (SF-268) was 53.8 µM (inactive), the GI50 (OVCAR-3) was 17.2 µM (inactive) and the GI50 (HOP-92) was 9.95 µM (inactive). For the same molecule, the GI50 (IGROV-1) was 27.9 µM (inactive), the GI50 (SK-MEL-28) was > 10 µM (inactive) and the GI50 (LOX IMVI) was 26.1 µM (inactive). The GI50 (SNB-19) was 97.7 µM (inactive), the GI50 (SK-OV-3) was > 100 µM (inactive) and the GI50 (M14) was 16.4 µM (inactive). The GI50 (SW-620) was > 100 µM (inactive), the GI50 (OVCAR-4) was 20.9 µM (inactive) and the GI50 (HCT-116) was 40.7 µM (inactive). For the same molecule, the GI50 (K562) was 6.19 µM (inactive), the GI50 (DMS-273) was 21.4 µM (inactive) and the GI50 (SN12C) was 41.1 µM (inactive). For the same molecule, the GI50 (RXF 393) was 48.9 µM (inactive), the GI50 (NCI-H460) was 27.7 µM (inactive) and the GI50 (SR) was 13.5 µM (inactive). For the same molecule, the GI50 (786-0) was 80.7 µM (inactive), the GI50 (XF498) was 1.58 µM (inactive) and the GI50 (M19-MEL) was 17.4 µM (inactive). For the same molecule, the GI50 (LXFL 529) was 18.2 µM (inactive), the GI50 (OVCAR-5) was > 100 µM (inactive) and the GI50 (DLD-1) was 28.6 µM (inactive). The GI50 (RPMI-8226) was 18.2 µM (inactive), the GI50 (ACHN) was 37.9 µM (inactive) and the GI50 (U-251) was 69.7 µM (inactive). For the same molecule, the GI50 (SK-MEL-5) was 11.3 µM (inactive), the GI50 (KM-20L2) was 80.5 µM (inactive) and the GI50 (SK-MEL-2) was 10.6 µM (inactive). The GI50 (UO-31) was 22.9 µM (inactive), the GI50 (HL-60) was 17.4 µM (inactive) and the GI50 (RXF 631) was 13.2 µM (inactive). The GI50 (KM12) was > 100 µM (inactive), the GI50 (A549) was 47.8 µM (inactive) and the GI50 (A498) was 24.5 µM (inactive). For the same molecule, the GI50 (CAKI-1) was 30.6 µM (inactive), the GI50 (HCT-15) was 64.1 µM and the GI50 (SF-295) was 76.2 µM (inactive). For the same molecule, the GI50 (SNB-75) was 16.9 µM (inactive), the GI50 (TK-10) was 83.9 µM (inactive) and the GI50 (EKVX) was 46.3 µM (inactive). The GI50 (DMS-114) was 22.4 µM (inactive), the GI50 (SNB-78) was 32.4 µM (inactive) and the GI50 (HOP-62) was > 100 µM (inactive). For the same molecule, the GI50 (MOLT-4) was 9.25 µM (inactive), the GI50 (NCI-H522) was 19.5 µM (inactive) and the GI50 (NCI-H226) was 32.4 µM (inactive). The GI50 (NCI-H23) was 79.8 µM (inactive), the GI50 (HCC 2998) was 92.3 µM (inactive) and the GI50 (CCRF-CEM) was 25.6 µM (inactive). The GI50 (SF-539) was 35.8 µM (inactive).

Reference: ChEMBL document CHEMBL1201862, “PubChem BioAssay data set” (2004)
